Source: paper PMC9209747 (Neuro-oncology Advances, 2022)
“And” between values parts separate entries of the source, which are not always exact repeats. Identical values can stand only once. “Also recorded” adds a separate entry of the source. Like-named read-outs stand apart in the source and are kept apart here. Marks after values point to notes of the source that are not given here.

Tests used:
[1] = test system: adult glioblastoma multiforme (GBM); parameters: method as in ref 3 (Mir et al.); details: combining radiation therapy with adavosertib; ref 3 (Mir et al.); cited from earlier work
[2] = test system: pediatric high-grade glioma including DIPG; parameters: method as in PMID 24305702, PMID 23270927; details: in combination with radiation therapy; cited from earlier work
[3] = Procedure: Patients received focal CRT at the current standard dose of 54 Gy in 180 cGy fractions, Monday through Friday for a total of 30 fractions over 6 weeks, with a rest period on Saturday and Sunday of each week.
Adverse events (AE) were graded according to the Common Terminology Criteria for Adverse Events version 5.0.
A rolling six design was used to estimate the MTD or RP2D. Overall survival (OS) was estimated using the Kaplan Meier method including 95% confidence intervals (CI). OS was calculated as the time (in months) from enrollment until date of death. […] Progressive disease was based on central imaging review. […] OS is compared with an historical cohort of patients which cumulatively includes DIPG patients from ACNS0126[23] and ACNS0222[22] using a log-rank test. PK parameters were analyzed with summary statistics, including means, and standard deviations.

γH2AX in tumor tissue = test system: γH2AX in tumor tissue; parameters: method as in our preclinical studies; details: treated mice compared to control animals; ref our preclinical studies; cited from earlier work
[4] = test system: newly diagnosed diffuse intrinsic pontine glioma (DIPG); experiment: Clinical activity: objective response by MRI and overall survival; type: in vivo, human
Procedure: Disease assessments were performed at baseline prior to start of CRT, within 3–4 weeks after completion of CRT, and then every 3 months. Response assessment was determined by changes in size using the maximal 2-dimensional cross-sectional tumor measurements, T × W (product of the longest diameter of the tumor [width (W)] and its longest perpendicular diameter [transverse (T)], using either T1 or T2 weighted images, similar to historical controls.[21],[22] We defined stable disease (SD) as failing to meet criteria for either partial response (PR), complete response (CR) or progressive disease (PD). PD was defined as any appearance of new lesion(s) or an increase of 25% or more in the sum of the product of the perpendicular diameters of the target lesions. PR was defined as a decrease of 50% or more in the sum of the products of the two perpendicular diameters of the target lesion. Two objective determinations of disease status, by MRI, obtained on two consecutive determinations, separated by at least a 4-week time period, were required to determine the patient’s overall best response. Imaging was reviewed centrally for 41 response-evaluable patients.
Progressive disease was based on central imaging review.

[5] = parameters: method as in ref 25 = [25]; 25. Alexander B , Supko J , Agar N , et al. ACTR-14. Phase 1 study of AZD1775 with radiation therapy (RT) and Temozolomide (TMZ) in patients with newly diagnosed gliobasltoma (GBM) and evaluation of i; details: adavosertib 200 mg/day (approximately 115 mg/m^2/day) in combination with temozolomide; cited from earlier work
[6] = test system: γH2AX in peripheral blood mononuclear cells (PBMCs); experiment: γH2AX in peripheral blood cells by flow cytometry (pharmacodynamics); type: in vivo, human; details: for γ-H2AX positive cells in peripheral blood cells, Post-Day1 dosing / γ-H2AX positive cells in peripheral blood cells, Post-Day5 dosing / γ-H2AX positive cells in peripheral blood cells, Post-Day8 dosing: individual patients
Procedure: The expression of γH2AX in PBMCs was measured pre and posttreatment using flow cytometry. Effort was made to obtain two baseline (pretreatment) samples on two different days, with the first occurring within 7 days prior to CRT. Serial samples were then collected on days 1 and 5 of treatment, 6-8 hours after each dose, and day 8 prior to the day's dose. Blood samples of 1 mL were drawn into heparinized containing tubes and transferred to a Smart Tube (Thermo Fisher) followed by a 30 min incubation period in a 37°C water bath for activation per manufacture's guidelines. Samples were stored at -80°C until shipment. The frozen Smart Tubes were thawed in a 10-12°C water bath for 20 min before the red blood cells were lysed and intact cells were fixed in 90% methanol and stored at -20°C overnight. Briefly, the methanol fixed cells were washed and blocked in staining buffer (1X PBS containing 0.5 mg/ml BSA) containing TruStain FcX^TM (BioLegend) for 10 min at room temperature. Next, cells were incubated with FITC-conjugated anti-γH2AX […] antibody (BioLegend) for 1 h, washed and DNA stained with propidium iodide (2 μg/ml) before data colection by flow cytometry on CytoflexS. Percent positive γH2AX blood cells was determined by FlowJo software and described as fold-change over baseline for each patient.[16]

[7] = cited from earlier work
clinical = details: human, in vivo
Procedure: Pharmacokinetic parameters were calculated using noncompartmental methods[20] using Phoenix® WinNonlin® Version 8.1 (WinNonlin version 8.1.03530, Pheonix 64; Pharsight Corporation, Mountain View, CA). […] Oral steady-state clearance (ClSS/F) was calculated using the equation, ClSS = Dose/AUCτ.

[8] = 41 patients evaluable for objective response, with CRT
[9] = 50 mg/m², alternating with weeks of QOD dosing

Compound: C=CCn1c(=O)c2cnc(Nc3ccc(N4CCN(C)CC4)cc3)nc2n1-c1cccc(C(C)(C)O)n1 [adavosertib]
- Survival in orthotopic GBM models [1]: significantly improved survival
- Survival in murine models [2]: prolongs survival
- Lung infection, patient-courses with grade >= 3 ([3]; all dose levels (N = 89)): 1 (1) # (%)
- Lung infection, patient-courses with grade >= 3 ([3]; dose level 4 (N = 15), 95 mg/m^2): 1 (6) # (%)
- Alanine aminotransferase increased, patient-courses with grade >= 3 ([3]; human, in vivo, 6 weeks): 1 (1) # (%)
- Anemia, patient-courses with grade >= 3 ([3]; human, in vivo, 6 weeks): 3 (3) # (%)
- Dizziness, patient-courses with grade >= 3 ([3]; human, in vivo, 6 weeks): 1 (1) # (%)
- Febrile neutropenia, patient-courses with grade >= 3 ([3]; human, in vivo, 6 weeks): 1 (1) # (%)
- Headache, patient-courses with grade >= 3 ([3]; human, in vivo, 6 weeks): 1 (1) # (%)
- Hypocalcemia, patient-courses with grade >= 3 ([3]; human, in vivo, 6 weeks): 1 (1) # (%)
- Lymphocyte count decreased, patient-courses with grade >= 3 ([3]; human, in vivo, 6 weeks): 16 (18) # (%)
- Neutrophil count decreased, patient-courses with grade >= 3 ([3]; human, in vivo, 6 weeks): 4 (4) # (%)
- Weight gain, patient-courses with grade >= 3 ([3]; human, in vivo, 6 weeks): 2 (2) # (%)
- White blood cell decreased, patient-courses with grade >= 3 ([3]; human, in vivo, 6 weeks): 5 (6) # (%)
- Recommended phase 2 dose (RP2D) ([3]; human, in vivo, po, 6 weeks): 200 mg/m^2/d
- Maximum tolerated dose (MTD) ([3]; seven dose levels up to 200 mg/m^2/day with CRT): No MTD was reached
- γH2AX expression in tumor tissue (γH2AX in tumor tissue): increased expression of γH2AX
- Progressive disease (PD) as best overall response, number of patients [4, 8]: 8
- Progressive disease (PD) as best overall response, share of patients [4, 8]: 19.5%
- Stable disease (SD) as best overall response, number of patients [4, 8]: 33
- Stable disease (SD) as best overall response, share of patients [4, 8]: 80.5%
- Best response by dose level ([4]; Fisher exact P = .82): no significant difference in best response by dose level
- Median overall survival (OS) ([4]; Kaplan Meier, adavosertib with CRT, all dose levels): 11.8 months
- OS compared to historical control ([4]; historical cohort ACNS0126 and ACNS0222, log-rank test): did not differ from historical control; also recorded: no significant difference in median OS; also recorded: not superior
- Toxicity in adults with newly diagnosed glioblastoma [5]: significant toxicity
- γ-H2AX positive cells in peripheral blood cells, Post-Day1 dosing ([6]; 50 mg/m², During Weeks 1-6): 1.42 and 1.29
- γ-H2AX positive cells in peripheral blood cells, Post-Day5 dosing ([6]; 50 mg/m², During Weeks 1-6): 1.42 and 0.32
- γ-H2AX positive cells in peripheral blood cells, Post-Day8 dosing ([6]; 50 mg/m², During Weeks 1-6): 0.68 and 0.11
- γ-H2AX positive cells in peripheral blood cells, Post-Day1 dosing ([6]; 50 mg/m², alternating weeks): 2.74
- γ-H2AX positive cells in peripheral blood cells, Post-Day5 dosing ([6]; 50 mg/m², alternating weeks): 2.03
- γ-H2AX positive cells in peripheral blood cells, Post-Day8 dosing ([6]; 50 mg/m², alternating weeks): 7.24
- γ-H2AX positive cells in peripheral blood cells, Post-Day1 dosing [6, 9]: 3.17 and 1.03 and 1.31 and 0.12
- γ-H2AX positive cells in peripheral blood cells, Post-Day5 dosing [6, 9]: 7.63 and 0.70 and 4.90 and 0.15
- γ-H2AX positive cells in peripheral blood cells, Post-Day8 dosing [6, 9]: 1.08 and 2.90 and 2.30 and 0.19
- γ-H2AX positive cells in peripheral blood cells, Post-Day1 dosing ([6]; 95 mg/m², During Weeks 1-6): 2.48 and 3.42 and 1.89
- γ-H2AX positive cells in peripheral blood cells, Post-Day5 dosing ([6]; 95 mg/m², During Weeks 1-6): 6.31 and 0.55 and 1.63
- γ-H2AX positive cells in peripheral blood cells, Post-Day8 dosing ([6]; 95 mg/m², During Weeks 1-6): 4.92 and 0.04 and 2.75
- γ-H2AX positive cells in peripheral blood cells, Post-Day1 dosing ([6]; 130 mg/m², During Weeks 1-6): 0.26 and 0.38 and 0.61 and 0.16 and 10.60 and 0.31
- γ-H2AX positive cells in peripheral blood cells, Post-Day5 dosing ([6]; 130 mg/m², During Weeks 1-6): 0.41 and 0.33 and 2.47 and 0.43 and 3.75 and 0.06
- γ-H2AX positive cells in peripheral blood cells, Post-Day8 dosing ([6]; 130 mg/m², During Weeks 1-6): 0.48 and 1.08 and 16.50 and 0.50 and 1.49 and 0.00
- γ-H2AX positive cells in peripheral blood cells, Post-Day1 dosing ([6]; 160 mg/m², During Weeks 1-6): 0.96 and 7.75 and 0.95 and 2.25 and 6.62
- γ-H2AX positive cells in peripheral blood cells, Post-Day5 dosing ([6]; 160 mg/m², During Weeks 1-6): 5.27 and 0.13 and 1.86 and 0.31 and 5.28
- γ-H2AX positive cells in peripheral blood cells, Post-Day8 dosing ([6]; 160 mg/m², During Weeks 1-6): 5.59 and 5.55 and 0.95 and 3.37 and 3.25
- γ-H2AX positive cells in peripheral blood cells, Post-Day1 dosing ([6]; 200 mg/m², During Weeks 1-6): 0.88 and 2.45 and 17.90 and 0.00
- γ-H2AX positive cells in peripheral blood cells, Post-Day5 dosing ([6]; 200 mg/m², During Weeks 1-6): 3.75 and 3.61 and 16.90 and 0.01 and 6.11
- γ-H2AX positive cells in peripheral blood cells, Post-Day8 dosing ([6]; 200 mg/m², During Weeks 1-6): 0.40 and 2.17 and 14.70 and 0.01 and 5.81
- Change of γH2AX in PBMCs compared to baseline ([6]; any dose level, with CRT): no significant changes compared to baseline
- BSA-adjusted plasma clearance ([7]; earlier pediatric COG study): 32.5 L/hr/m^2
- MTD of adavosertib ([7]; in combination with irinotecan 90 mg/m^2/dose, orally daily for 5 days on a 21 day cycle): 85 mg/m^2/dose
- Dose dependence of Cmax and AUC (clinical): appeared to increase in proportion to dose
- Median BSA-adjusted plasma clearance (clinical): 45.2 L/hr/m^2
- Median half-life (clinical): 4.4 h
- half-life (clinical): 4.4 h
